The source made the active and inactive calls.
Tests used:
[1] = target: Ras and Rab interactor 1/Tyrosine-protein kinase ABL1 (Homo sapiens, UniProt P00519+Q13671); format: functional;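 also: biochemical TR-FRET dose-response test measuring inhibition of binding between Rin1 and Abl proteins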
[2] = target: T1, Rac GTPase-activating protein 1 (Homo sapiens, UniProt Q9H0H5); test: MgcRacGAP GTPase-activating activity inhibitors, confirmation, biochemical, ADP Hunter fluorescence, primary and confirmatory (AID 624330); format: functional
T1 sequence (Q9H0H5 whole entry): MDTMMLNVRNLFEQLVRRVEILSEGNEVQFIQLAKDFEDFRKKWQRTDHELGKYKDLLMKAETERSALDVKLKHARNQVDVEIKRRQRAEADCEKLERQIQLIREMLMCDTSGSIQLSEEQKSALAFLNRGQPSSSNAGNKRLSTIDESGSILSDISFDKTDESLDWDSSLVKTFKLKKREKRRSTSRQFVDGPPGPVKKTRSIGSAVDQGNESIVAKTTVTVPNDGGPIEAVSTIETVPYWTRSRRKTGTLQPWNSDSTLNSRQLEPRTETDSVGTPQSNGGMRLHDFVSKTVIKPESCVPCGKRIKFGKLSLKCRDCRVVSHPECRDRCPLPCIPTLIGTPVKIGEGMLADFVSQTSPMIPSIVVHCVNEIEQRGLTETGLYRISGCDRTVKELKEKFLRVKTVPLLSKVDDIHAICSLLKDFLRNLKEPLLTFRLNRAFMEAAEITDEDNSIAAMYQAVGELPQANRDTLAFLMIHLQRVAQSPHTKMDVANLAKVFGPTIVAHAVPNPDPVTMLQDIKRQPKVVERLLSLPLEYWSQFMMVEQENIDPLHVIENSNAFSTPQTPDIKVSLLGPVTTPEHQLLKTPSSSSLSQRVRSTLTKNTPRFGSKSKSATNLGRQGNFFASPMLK

[3] = A549 cell cytotoxicity, dose response, cytotoxicity control, plate reader, cherry-pick, antagonist series (AID 743412); format: functional, cell-based
[4] = LGR2 antagonists, dose response, cell-based, HEK293, CRE-luciferase reporter, cherry pick, set 2 (AID 743343); format: functional;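 also: transfected cells were stimulated with diluted bursicon conditioned medium after compound addition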
[5] = HeLa cell cytotoxicity, dose response, cytotoxicity control for MgcRacGAP inhibitor project (AID 624300); format: functional
[6] = HepG2 cell cytotoxicity, dose response, cytotoxicity control, plate reader, cherry-pick, antagonist series (AID 743416); format: functional, cell-based
[7] = target: T2, DNA repair and recombination protein RAD54-like (Homo sapiens, UniProt Q92698); test: inhibitors of human RAD54 branch migration, confirmation, biochemical, fluorescence, cherry-picked samples, dose series (AID 651657); format: functional
T2 sequence (Q92698 whole entry): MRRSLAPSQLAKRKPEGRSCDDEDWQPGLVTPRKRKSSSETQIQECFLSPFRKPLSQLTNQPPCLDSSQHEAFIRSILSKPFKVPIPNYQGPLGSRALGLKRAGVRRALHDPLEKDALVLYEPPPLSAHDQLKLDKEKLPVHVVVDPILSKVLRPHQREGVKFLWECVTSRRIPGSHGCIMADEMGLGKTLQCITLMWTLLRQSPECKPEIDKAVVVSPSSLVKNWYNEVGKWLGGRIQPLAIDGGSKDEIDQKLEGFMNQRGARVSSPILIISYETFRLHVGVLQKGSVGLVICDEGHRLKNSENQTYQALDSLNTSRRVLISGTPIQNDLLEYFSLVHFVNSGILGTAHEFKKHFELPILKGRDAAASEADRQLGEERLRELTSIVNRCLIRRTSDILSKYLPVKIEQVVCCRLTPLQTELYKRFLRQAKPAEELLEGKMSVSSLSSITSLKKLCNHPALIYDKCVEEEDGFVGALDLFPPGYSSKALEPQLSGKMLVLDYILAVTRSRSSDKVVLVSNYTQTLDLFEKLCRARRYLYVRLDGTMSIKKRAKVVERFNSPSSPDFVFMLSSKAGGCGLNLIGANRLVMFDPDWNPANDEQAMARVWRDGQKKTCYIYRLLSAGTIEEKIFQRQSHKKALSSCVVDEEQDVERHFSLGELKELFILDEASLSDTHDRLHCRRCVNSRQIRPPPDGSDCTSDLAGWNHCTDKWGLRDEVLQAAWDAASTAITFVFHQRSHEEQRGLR

[8] = target: 72 kDa type IV collagenase (Homo sapiens, UniProt P08253); test: Dose Response validation of uHTS RPN11 inhibitor hits using a MMP-2 Fluorescence assay.; format: functional
Sequence of 72 kDa type IV collagenase (P08253 whole entry): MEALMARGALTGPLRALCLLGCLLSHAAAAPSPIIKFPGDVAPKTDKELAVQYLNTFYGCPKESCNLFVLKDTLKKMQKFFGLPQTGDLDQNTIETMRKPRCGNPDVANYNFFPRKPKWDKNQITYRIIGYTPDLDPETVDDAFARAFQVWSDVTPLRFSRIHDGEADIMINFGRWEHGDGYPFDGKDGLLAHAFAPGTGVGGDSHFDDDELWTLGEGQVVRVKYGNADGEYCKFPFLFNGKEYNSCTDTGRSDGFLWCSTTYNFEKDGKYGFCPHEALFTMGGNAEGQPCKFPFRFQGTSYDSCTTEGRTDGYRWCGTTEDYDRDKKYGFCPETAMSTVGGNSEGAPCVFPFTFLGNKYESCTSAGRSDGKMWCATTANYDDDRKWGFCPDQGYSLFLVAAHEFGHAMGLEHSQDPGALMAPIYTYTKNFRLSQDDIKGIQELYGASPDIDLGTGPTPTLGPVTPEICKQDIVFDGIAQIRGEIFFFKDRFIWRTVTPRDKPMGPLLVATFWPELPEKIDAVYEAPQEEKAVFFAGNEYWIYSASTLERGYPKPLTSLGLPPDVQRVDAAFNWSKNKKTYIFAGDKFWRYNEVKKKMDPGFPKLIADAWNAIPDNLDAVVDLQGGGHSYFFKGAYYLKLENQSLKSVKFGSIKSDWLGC

[9] = target: 26S proteasome non-ATPase regulatory subunit 14 (Homo sapiens, UniProt O00487); test: inhibition of proteasome subunit RPN11 – biochemical, fluorescence polarization, uHTS hits, confirmation (AID 602368); format: functional
Sequence of 26S proteasome non-ATPase regulatory subunit 14 (O00487 whole entry): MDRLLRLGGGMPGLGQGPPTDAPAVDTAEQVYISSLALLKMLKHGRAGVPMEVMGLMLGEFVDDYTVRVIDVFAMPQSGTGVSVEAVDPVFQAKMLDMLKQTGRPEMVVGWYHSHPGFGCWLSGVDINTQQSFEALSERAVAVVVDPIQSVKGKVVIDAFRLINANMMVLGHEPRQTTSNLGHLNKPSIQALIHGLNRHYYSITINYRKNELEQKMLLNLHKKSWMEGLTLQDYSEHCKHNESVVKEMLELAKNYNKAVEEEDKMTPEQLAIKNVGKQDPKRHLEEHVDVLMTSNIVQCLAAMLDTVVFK

[10] = target: Dual specificity tyrosine-phosphorylation-regulated kinase 1A (Rattus norvegicus, UniProt Q63470); format: biochemical, Homo sapiens
Prothrombin = Prothrombin (Bos taurus, UniProt P00735); test: thrombin inhibition, dose response, biochemical, fluorescence polarization, uHTS hits (AID 602369); format: functional
Streptokinase A = target: T3, Streptokinase A (Streptococcus pyogenes serotype M1, UniProt P10520); test: S. pyogenes streptokinase expression inhibitors, potency, dose response, plasminogen activation absorbance, OD405 (AID 1914); format: functional, Streptococcus pyogenes M1 GAS;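 also: secreted streptokinase activity via plasminogen activation per viability signal from cell pellet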
T3 sequence (P10520 whole entry): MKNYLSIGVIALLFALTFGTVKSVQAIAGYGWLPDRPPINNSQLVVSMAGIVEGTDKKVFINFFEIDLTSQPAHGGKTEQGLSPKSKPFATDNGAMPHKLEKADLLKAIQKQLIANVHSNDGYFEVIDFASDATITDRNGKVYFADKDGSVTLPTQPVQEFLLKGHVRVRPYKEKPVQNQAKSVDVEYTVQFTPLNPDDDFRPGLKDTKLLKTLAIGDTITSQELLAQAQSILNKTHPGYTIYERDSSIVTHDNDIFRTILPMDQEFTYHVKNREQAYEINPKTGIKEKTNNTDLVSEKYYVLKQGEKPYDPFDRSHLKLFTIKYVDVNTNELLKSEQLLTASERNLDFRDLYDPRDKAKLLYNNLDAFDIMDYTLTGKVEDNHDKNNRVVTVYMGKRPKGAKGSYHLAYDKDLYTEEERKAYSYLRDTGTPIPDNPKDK

[11] = target: DNA (cytosine-5)-methyltransferase 1 (Homo sapiens, UniProt P26358); test: DNMT1 methyltransferase inhibitors, confirmation, biochemical, fluorescent molecular beacon (AID 602386); format: functional
Sequence of DNA (cytosine-5)-methyltransferase 1 (P26358 whole entry): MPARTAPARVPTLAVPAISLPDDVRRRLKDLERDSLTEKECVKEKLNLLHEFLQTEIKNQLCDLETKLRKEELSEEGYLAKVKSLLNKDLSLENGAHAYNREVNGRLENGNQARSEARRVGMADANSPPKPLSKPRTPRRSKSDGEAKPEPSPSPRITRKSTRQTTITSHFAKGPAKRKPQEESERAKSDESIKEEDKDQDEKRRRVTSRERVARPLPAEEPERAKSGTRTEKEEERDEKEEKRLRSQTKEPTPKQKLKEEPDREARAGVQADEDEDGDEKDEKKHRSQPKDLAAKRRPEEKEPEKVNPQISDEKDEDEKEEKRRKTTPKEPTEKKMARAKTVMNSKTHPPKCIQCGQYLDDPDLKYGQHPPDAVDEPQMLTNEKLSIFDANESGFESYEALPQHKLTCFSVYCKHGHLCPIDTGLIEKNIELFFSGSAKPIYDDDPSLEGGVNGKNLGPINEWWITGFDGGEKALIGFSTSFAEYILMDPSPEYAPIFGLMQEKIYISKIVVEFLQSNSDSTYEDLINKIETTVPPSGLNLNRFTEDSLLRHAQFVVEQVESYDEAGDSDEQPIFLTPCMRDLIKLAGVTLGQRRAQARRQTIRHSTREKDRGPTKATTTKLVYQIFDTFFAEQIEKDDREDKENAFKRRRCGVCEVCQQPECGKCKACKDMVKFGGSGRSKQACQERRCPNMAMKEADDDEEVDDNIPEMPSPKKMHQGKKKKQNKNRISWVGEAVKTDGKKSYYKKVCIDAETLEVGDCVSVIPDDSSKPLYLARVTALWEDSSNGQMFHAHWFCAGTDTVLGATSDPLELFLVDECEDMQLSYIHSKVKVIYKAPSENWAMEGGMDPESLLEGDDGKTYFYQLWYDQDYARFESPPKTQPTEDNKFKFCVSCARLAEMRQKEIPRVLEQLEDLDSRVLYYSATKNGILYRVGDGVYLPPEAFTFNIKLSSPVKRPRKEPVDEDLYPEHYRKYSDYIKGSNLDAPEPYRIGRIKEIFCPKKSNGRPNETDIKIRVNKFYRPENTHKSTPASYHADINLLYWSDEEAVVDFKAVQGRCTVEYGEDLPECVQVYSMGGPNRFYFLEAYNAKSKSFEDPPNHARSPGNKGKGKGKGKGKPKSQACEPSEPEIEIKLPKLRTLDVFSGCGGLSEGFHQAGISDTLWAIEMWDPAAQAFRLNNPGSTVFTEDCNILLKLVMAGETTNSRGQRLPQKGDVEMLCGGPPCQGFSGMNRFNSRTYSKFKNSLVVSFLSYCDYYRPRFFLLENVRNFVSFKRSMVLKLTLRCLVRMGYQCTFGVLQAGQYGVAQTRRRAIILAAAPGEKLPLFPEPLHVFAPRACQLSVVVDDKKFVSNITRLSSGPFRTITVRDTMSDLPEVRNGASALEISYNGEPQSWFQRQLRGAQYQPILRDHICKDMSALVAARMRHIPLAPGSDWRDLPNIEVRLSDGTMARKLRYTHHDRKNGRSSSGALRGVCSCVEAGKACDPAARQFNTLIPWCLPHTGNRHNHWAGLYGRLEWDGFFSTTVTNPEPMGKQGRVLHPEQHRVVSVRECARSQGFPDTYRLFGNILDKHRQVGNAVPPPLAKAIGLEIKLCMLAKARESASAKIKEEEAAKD

[12] = tested on: Streptococcus sp. 'group A'; test: growth inhibition of control SK(-) GAS strain, dose response, counter-screen for streptokinase expression inhibitor project, luminescence, kanamycin, BacTiterGlo, confirmation (AID 1900); format: functional, organism-based
Streptococcus = test: Group A Streptococcus viability loss, dose response, counter-screen for streptokinase expression inhibitor project, luminescence, BacTiterGlo (AID 1915); format: functional, organism-based;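 also: potency for reduction of bacterial viability or growth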
[13] = target: T4, Trace amine-associated receptor 1 (Homo sapiens, UniProt Q96RJ0); test: Fluorescence-based cell-based high throughput dose response assay to identify agonists of the human trace amine associated receptor 1 (TAAR1).; format: functional
T4 sequence (Q96RJ0 whole entry): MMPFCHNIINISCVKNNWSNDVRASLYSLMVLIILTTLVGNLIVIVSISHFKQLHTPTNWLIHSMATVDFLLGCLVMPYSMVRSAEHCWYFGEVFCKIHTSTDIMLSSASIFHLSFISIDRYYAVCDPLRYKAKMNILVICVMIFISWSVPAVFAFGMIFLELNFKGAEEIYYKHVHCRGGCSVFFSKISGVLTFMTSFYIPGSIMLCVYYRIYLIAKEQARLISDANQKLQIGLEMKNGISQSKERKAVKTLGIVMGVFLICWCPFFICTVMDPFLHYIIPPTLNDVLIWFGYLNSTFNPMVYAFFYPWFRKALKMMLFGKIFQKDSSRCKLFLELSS

[14] = target: T4, Trace amine-associated receptor 1; test: Counterscreen for agonists of the human trace amine associated receptor 1 (hTAAR1): Fluorescence-based cell-based high throughput dose response assay to identify hTAAR1 agonist that also desensitize TAAR1 receptor response.; format: functional
cells [15] = format: functional, cell-based
cells [16] = format: functional, cell-based; remark: listed apart in the source
[17] = target: T5, DNA repair protein RAD52 homolog (Homo sapiens, UniProt P43351); format: functional, biochemical
T5 sequence (P43351 whole entry): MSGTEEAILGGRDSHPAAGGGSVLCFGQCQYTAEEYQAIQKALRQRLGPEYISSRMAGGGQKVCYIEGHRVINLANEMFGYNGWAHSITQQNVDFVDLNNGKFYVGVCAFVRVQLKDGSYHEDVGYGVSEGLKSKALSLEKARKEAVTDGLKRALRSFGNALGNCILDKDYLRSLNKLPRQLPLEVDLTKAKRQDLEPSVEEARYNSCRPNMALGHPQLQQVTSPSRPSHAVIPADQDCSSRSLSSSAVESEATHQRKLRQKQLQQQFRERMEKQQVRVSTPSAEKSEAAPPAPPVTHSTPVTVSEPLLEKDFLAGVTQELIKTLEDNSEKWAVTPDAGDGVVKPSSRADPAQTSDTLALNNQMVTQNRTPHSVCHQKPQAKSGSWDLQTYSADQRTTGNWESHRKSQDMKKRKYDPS

[18] = target: T6, Hepatocyte nuclear factor 4-alpha (Homo sapiens, UniProt P41235); format: functional, cell-based;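 also: biochemical luminescence-based dose-response counterscreen measuring inhibition of HNF4 dimerization, run alongside a screen for blockers of ABHD5–perilipin-5 interaction; split luciferase complementation of HNF4 fusion proteins in cell lysate measuring dimerization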
T6 sequence (P41235 whole entry): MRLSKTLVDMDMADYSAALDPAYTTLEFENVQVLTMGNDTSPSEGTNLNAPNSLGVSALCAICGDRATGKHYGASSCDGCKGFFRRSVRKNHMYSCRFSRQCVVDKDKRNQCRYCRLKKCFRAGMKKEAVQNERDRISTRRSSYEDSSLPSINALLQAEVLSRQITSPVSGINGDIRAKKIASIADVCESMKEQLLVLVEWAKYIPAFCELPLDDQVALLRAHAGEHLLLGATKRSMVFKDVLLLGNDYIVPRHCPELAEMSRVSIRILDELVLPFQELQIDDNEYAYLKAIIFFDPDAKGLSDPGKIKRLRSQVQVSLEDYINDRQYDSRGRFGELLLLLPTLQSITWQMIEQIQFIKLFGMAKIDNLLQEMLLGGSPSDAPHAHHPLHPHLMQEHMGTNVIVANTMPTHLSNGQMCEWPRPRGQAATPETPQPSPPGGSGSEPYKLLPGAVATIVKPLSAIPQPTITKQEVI

[19] = HEK293T cytotoxicity, dose response, cytotoxicity control for miR-122 modulator project, cell-based, inhibitor set, cherry-pick, set 2 (AID 720697); format: functional
[20] = target: T7, Heat shock factor protein 1 (Mus musculus, UniProt P38532); test: inhibition of MG132-induced HSE-luciferase signal, confirmation, cell-based, NIH3T3, luminescence, dose retest (AID 2382); format: functional;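 also: NIH3T3 fibroblasts with HSF1-driven luciferase reporter stressed by proteasome inhibitor MG132; luminescence from HSF1-driven luciferase expression after 8 hours of MG132 stress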
T7 sequence (P38532 whole entry): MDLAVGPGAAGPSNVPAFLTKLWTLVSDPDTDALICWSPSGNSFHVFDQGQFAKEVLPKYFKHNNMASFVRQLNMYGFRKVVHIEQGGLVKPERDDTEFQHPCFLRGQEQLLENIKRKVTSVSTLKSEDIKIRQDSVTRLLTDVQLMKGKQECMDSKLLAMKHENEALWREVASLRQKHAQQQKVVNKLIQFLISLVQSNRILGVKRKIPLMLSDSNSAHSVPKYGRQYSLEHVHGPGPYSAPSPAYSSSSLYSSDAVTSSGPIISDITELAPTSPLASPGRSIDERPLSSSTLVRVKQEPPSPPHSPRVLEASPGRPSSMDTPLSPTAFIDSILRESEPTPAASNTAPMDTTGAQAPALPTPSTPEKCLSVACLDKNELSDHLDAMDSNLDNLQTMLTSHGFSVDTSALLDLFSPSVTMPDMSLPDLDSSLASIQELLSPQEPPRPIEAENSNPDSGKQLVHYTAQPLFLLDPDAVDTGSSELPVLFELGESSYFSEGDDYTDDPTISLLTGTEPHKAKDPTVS

Sequence of Ras and Rab interactor 1/Tyrosine-protein kinase ABL1 (P00519 whole entry): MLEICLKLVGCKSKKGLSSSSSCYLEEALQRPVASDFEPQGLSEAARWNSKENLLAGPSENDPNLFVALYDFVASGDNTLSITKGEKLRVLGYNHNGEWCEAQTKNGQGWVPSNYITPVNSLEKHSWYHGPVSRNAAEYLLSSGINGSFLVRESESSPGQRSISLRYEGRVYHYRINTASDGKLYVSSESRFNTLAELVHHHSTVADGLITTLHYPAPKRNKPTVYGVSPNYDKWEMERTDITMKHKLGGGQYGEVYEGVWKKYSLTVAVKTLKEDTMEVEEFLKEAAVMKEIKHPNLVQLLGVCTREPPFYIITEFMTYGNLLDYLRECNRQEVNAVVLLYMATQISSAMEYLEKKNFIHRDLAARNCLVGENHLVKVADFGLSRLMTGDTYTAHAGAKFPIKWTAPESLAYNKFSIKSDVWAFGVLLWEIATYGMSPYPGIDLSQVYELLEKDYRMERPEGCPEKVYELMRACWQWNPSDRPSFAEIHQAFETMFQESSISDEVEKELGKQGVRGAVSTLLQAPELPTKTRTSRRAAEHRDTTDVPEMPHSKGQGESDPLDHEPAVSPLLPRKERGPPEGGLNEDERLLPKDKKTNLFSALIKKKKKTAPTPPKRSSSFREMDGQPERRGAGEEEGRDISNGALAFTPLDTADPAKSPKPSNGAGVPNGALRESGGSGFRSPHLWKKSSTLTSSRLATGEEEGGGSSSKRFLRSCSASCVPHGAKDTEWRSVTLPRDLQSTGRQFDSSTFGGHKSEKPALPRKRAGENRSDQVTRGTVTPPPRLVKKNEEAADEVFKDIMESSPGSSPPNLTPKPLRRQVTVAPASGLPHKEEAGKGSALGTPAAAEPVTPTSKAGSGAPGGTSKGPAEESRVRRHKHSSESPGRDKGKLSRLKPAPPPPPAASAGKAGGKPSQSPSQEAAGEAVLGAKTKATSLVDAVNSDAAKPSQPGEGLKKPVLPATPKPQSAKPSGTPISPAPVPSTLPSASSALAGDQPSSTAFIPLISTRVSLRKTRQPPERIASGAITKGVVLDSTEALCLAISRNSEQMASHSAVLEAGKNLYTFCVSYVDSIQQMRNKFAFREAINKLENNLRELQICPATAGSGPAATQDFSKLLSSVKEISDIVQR
Sequence of Ras and Rab interactor 1/Tyrosine-protein kinase ABL1 (Q13671 whole entry): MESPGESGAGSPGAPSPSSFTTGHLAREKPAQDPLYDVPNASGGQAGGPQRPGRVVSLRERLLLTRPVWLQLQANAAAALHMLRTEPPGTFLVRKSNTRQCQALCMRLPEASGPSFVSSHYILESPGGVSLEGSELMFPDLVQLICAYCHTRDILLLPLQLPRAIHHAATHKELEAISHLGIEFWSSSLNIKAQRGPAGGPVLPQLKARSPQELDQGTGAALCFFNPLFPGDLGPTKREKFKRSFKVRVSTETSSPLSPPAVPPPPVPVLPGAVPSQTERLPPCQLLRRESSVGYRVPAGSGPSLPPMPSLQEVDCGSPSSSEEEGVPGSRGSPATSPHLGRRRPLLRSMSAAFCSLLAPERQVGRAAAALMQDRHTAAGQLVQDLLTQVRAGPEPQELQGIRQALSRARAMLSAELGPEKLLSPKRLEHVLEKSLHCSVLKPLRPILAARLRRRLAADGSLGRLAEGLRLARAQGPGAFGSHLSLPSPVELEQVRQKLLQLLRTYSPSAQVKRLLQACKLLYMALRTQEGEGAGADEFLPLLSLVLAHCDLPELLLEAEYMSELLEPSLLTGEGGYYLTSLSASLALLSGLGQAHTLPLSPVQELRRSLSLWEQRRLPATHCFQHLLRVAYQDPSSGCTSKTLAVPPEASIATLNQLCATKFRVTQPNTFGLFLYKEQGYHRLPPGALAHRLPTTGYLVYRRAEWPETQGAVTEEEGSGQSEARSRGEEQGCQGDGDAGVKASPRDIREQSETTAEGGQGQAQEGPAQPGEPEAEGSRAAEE

COC(=O)CCSCc1cn2cc(Cl)ccc2n1
IC50 [1]: 8.83 µM (active)

Oc1ccc(-c2csc(-c3cccnc3)n2)c(O)c1
IC50 [2]: 30.9 µM (active) | AC50 [3]: 23.6 µM (active) | AC50 [4]: 44.3 µM (active) | CC50 [5]: 100 µM (active) | AC50 [6]: 42.4 µM (active)

CCOc1ccccc1N(C(=O)c1snc(C(N)=O)c1N)C(C(=O)NCC1CCCO1)c1ccc2ncccc2c1 (stereo unspecified)
IC50 [1]: 25.1 µM (inactive)

O=C(Nc1cccc([N+](=O)[O-])c1)c1cc(S(=O)(=O)N2CCOCC2)cs1
AC50 [7]: 21.8 µM (active)

COc1cc(/C=C2\SC(N)=NC2=O)cc(Cl)c1O
IC50 [8]: > 100 µM (inactive) | IC50 [2]: 43.6 µM (active) | IC50 [9]: 26.8 µM (active) | AC50 [10]: 18.6 µM (active) | IC50 (Prothrombin): 32.8 µM (active)

COc1ccc(-c2nn(-c3ccccc3)cc2/C=C2/SC(=S)N(CCC(=O)O)C2=O)cc1
EC50 (Streptokinase A): > 150 µM (not active) | IC50 [11]: 5.06 µM (active) | EC50 [12]: 2.14 µM (active) | EC50 (Streptococcus): 4.88 µM (active)

Cc1cc(C(=O)CSc2nnnn2-c2ccccc2)c(C)n1CCc1ccccc1
EC50 [13]: 3.4 µM (active) | IC50 [14]: 6.28 µM (active) | IC50 (cells [15]): > 29.9 µM (inactive) | EC50 (cells [16]): > 29.9 µM (inactive)

COCCN(CCOC)C(=O)CSc1ccc(S(=O)(=O)N2CCN(C)CC2)cn1
IC50 [1]: 20.5 µM (inactive)

CC(=O)Nc1cc(-c2ccc(N3CCN(C)CC3)cc2)cn2c(-c3cccc(C(C)=O)c3)cnc12
AC50 [7]: 14.8 µM (active) | AC50 [17]: 4.9 µM (active)

CC(C)(C)NC(=O)C(c1ccccc1)n1c(=O)c(-c2ccco2)nc2ccccc21 (stereo unspecified)
IC50 [18]: 1.4 µM (active)

COc1ccc(NC(=O)C(c2ccc(C#N)cc2)n2c(=O)c(-c3ccco3)nc3ccccc32)cc1 (stereo unspecified)
IC50 [18]: 13.5 µM (inactive)

COc1cccc(C(=O)N[C@H](C(=O)N2CCC[C@H]2C(=O)NCCc2ccccc2Cl)C(C)C)c1
EC50 [13]: 1.08 µM (active) | IC50 [14]: 2.22 µM (active) | IC50 (cells [15]): > 29.9 µM (inactive) | EC50 (cells [16]): > 29.9 µM (inactive)

CCCC(=O)Nc1ccc2c(c1)C(=O)N(C)[C@@H]1CC[C@H](CC(=O)Nc3cn(C)nc3C)O[C@@H]1CO2
AC50 [19]: 0.499 µM (active)

C/C(=N\CCc1ccccc1)C1=C(O)SCC1=O
EC50 [13]: 1.55 µM (active) | IC50 [14]: 9.57 µM (active) | IC50 (cells [15]): > 29.9 µM (inactive) | EC50 (cells [16]): > 29.9 µM (inactive) | EC50 [20]: > 195 µM (not active)
